Counter-ions that a name gives are not always drawn.
Tests used:
recombinant human cGAS = recombinant human cGAS (Homo sapiens (Human), UniProt Q8N884); test: In vitro inhibition assay of cGAS activity (cGAMP production, RapidFire mass spectrometry); format: biochemical; settings: 10 nM recombinant human cGAS, 60 nM 75-bp dsDNA, ATP, GTP, room temperature 3 hours, read-out: IC50 (μM), In vitro inhibition assay for Compounds 95-348
Procedure, shortened: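 Full-length His6-tagged human cGAS (10 nM, E. coli-expressed) was incubated 3 h at room temperature with 60 nM 75-bp dsDNA, ATP, 50 μM GTP and compound at pH 7.5 with 5 mM MgCl2. cGAMP formation was measured by RapidFire mass spectrometry, and IC50 was taken from a 4-parameter logistic fit.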

[1] = system: cGAS activity in THP1 cells (IFNb as marker); test: Cellular assay to measure cGAS activity (IFNb production in PMA-differentiated THP1 cells stimulated by RDG-Adenovirus-GFP); format: cell-based, human; settings: Homo sapiens, THP-1, THP1 cells, PMA differentiated, RDG-Adenovirus-GFP 1000 MOI, IFNb AlphaLISA, overnight incubation; read-out: IC50 (μM), Cellular assay for Compounds 95-348
Procedure: Cellular assay to measure cGAS activity: Use THP1 cell line from ATCC to determine inhibition of cGAS activity by test compounds in human cells. Plate cells on 96-well plates at 0.2×10^6/well and differentiate with phorbol myristate acetate (PMA) at 37° C./5% CO2. After 24 hours, replace PMA containing media with media lacking PMA and further incubate overnight. Stimulate cells were then by RDG-Adenovirus-GFP (Vector Biolabs #1768) at 1000 MOI for 4 hours prior to the addition of test compounds. After overnight incubation, transfer 10 μL of the media from each well to a new plate for IFNb analysis as a marker for cGAS activity. Measure quantification of IFNb with an IFNb AlphaLISA Detection kit (Perkin Elmer AL3133F) by mixing the acceptor beads with the cell supernatant followed by the addition of the biotinylated antibody and donor beads. Measure the relative fluorescence signal produced from the interaction of the donor and acceptor beads by a PHERAStar AlphaLISA protocol and evaluate the inhibitory effect of a compound by plotting specific inhibition of IFNb production against log concentration of the test compound. Calculate IC50 values using a 4-parameter non-linear logistic equation (y=(S0+((SInf−S0)/(1+((qAC50/x)^nHill))))).

Sequence of recombinant human cGAS (Q8N884 whole entry): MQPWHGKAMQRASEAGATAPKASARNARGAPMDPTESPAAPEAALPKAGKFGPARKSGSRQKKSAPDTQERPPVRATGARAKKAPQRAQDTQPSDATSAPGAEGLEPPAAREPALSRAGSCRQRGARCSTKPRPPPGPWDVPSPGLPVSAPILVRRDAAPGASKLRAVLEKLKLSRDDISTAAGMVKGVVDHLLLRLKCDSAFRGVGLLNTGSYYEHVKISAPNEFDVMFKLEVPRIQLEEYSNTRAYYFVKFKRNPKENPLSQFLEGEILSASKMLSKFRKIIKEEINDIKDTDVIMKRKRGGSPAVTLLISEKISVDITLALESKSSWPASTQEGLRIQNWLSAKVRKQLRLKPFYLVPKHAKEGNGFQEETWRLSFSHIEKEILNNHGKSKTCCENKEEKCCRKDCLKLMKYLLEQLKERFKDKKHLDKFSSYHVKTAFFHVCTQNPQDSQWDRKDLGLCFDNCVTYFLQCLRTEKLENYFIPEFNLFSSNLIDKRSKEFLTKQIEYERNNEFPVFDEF

| Compound | IC50 (recombinant human cGAS) [µM] | IC50 [1] [µM] |
| --- | --- | --- |
| OCCn1cc(-n2cc(-c3cn[nH]c3)c3ccc(Cl)c(Cl)c32)nn1 [Example 138, 2-[4-[6,7-Dichloro-3-(1H-pyrazol-4-yl)indol-1-yl]triazol-1-yl]ethanol] | 0.0462 | 4.99 |
| OCCCn1cc(-n2cc(-c3cn[nH]c3)c3ccc(Cl)c(Cl)c32)nn1 [Example 139, 3-[4-[6,7-Dichloro-3-(1H-pyrazol-4-yl)indol-1-yl]triazol-1-yl]propan-1-ol] | 0.077 | 5.13 |
| OCC(O)Cn1cc(-n2cc(-c3cn[nH]c3)c3ccc(Cl)c(Cl)c32)nn1 (stereo not shown) [Example 140, 3-[4-[6,7-Dichloro-3-(1H-pyrazol-4-yl)indol-1-yl]triazol-1-yl]propane-1,2-diol] | 0.0481 | 7.11 |
| CNC(=O)CC(=O)NC1CCc2c(-c3cn[nH]c3)c3ccc(Cl)c(Cl)c3n2C1 (stereo not shown) [Example 141, N′-[3,4-Dichloro-10-(1H-pyrazol-4-yl)-6,7,8,9-tetrahydropyrido[1,2-a]indol-7-yl]-N-methyl-propanediamide] | 0.0275 | 3.3 |
| N#CCOc1cc(Cl)c(Cl)c2c1c(-c1cn[nH]c1)c1n2CCN(CCO)C1=O [Example 142, 2-[[6,7-Dichloro-2-(2-hydroxyethyl)-1-oxo-10-(1H-pyrazol-4-yl)-3,4-dihydropyrazino[1,2-a]indol-9-yl]oxy]acetonitrile] | 0.0127 | 3.14 |
| N#CCNc1cc(Cl)c(Cl)c2c1c(-c1cn[nH]c1)c1n2CCN(CCO)C1=O [Example 143, 2-[[6,7-Dichloro-2-(2-hydroxyethyl)-1-oxo-10-(1H-pyrazol-4-yl)-3,4-dihydropyrazino[1,2-a]indol-9-yl]amino]acetonitrile] | 0.0419 | > 10 |
| OCCCNc1cc(Cl)c(Cl)c2[nH]cc(-c3cn[nH]c3)c12 [Example 144, 3-[[6,7-Dichloro-3-(1H-pyrazol-4-yl)-1H-indol-4-yl]amino]propan-1-ol] | 0.00433 | 1.47 |
| O=C(CO)Nc1cc(Cl)c(Cl)c2c1c(-c1cn[nH]c1)c1n2CCN(C(=O)CO)C1 [Example 145, N-(6,7-Dichloro-2-(2-hydroxyacetyl)-10-(1H-pyrazol-4-yl)-1,2,3,4-tetrahydropyrazino[1,2-a]indol-9-yl)-2-hydroxyacetamide] | 0.0804 | > 10 |
| CC(=O)N1CCn2c(c(-c3cn[nH]c3)c3c(NC(=O)CO)cc(Cl)c(Cl)c32)C1 [Example 146, N-(2-Acetyl-6,7-dichloro-10-(1H-pyrazol-4-yl)-1,2,3,4-tetrahydropyrazino[1,2-a]indol-9-yl)-2-hydroxyacetamide] | 0.0918 | > 10 |
| NC1(C(=O)N2CCn3c(c(-c4cn[nH]c4)c4ccc(Cl)c(Cl)c43)C2)CCOCC1 [Example 147, (4-Aminotetrahydro-2H-pyran-4-yl)(6,7-dichloro-10-(1H-pyrazol-4-yl)-3,4-dihydropyrazino[1,2-a]indol-2(1H)-yl)methanone] | 0.0474 | 4.63 |
| CCNc1cc(Cl)c(Cl)c2c1c(-c1cn[nH]c1)c1n2CCN(C(=O)CO)C1 [Example 148, 1-(6,7-Dichloro-9-(ethylamino)-10-(1H-pyrazol-4-yl)-3,4-dihydropyrazino[1,2-a]indol-2(1H)-yl)-2-hydroxyethan-1-one] | 0.052 | 1.54 |
| CCNc1cc(Cl)c(Cl)c2c1c(-c1cn[nH]c1)c1n2CCN(C)C1=O [Example 149, 6,7-Dichloro-9-(ethylamino)-2-methyl-10-(1H-pyrazol-4-yl)-3,4-dihydropyrazino[1,2-a]indol-1-one hydrochloride] | 0.0442 | 6.05 |
| CCNc1cc(Cl)c(Cl)c2[nH]cc(-c3cn[nH]c3)c12 [Example 150, 6,7-Dichloro-N-ethyl-3-(1H-pyrazol-4-yl)-1H-indol-4-amine] | 0.0303 | 1.92 |
| CC(=O)N1CCOC(CCN2CCn3c(c(-c4cn[nH]c4)c4c(OCC#N)cc(Cl)c(Cl)c43)C2=O)C1 (stereo not shown) [Example 151, 2-[[2-[2-(4-Acetylmorpholin-2-yl)ethyl]-6,7-dichloro-1-oxo-10-(1H-pyrazol-4-yl)-3,4-dihydropyrazino[1,2-a]indol-9-yl]oxy]acetonitrile] | 0.0349 | > 10 |
| COc1cc2c(-c3cn[nH]c3)cn(-c3cn(CCO)nn3)c2cc1Cl [Example 152, 2-[4-[6-Chloro-5-methoxy-3-(1H-pyrazol-4-yl)indol-1-yl]triazol-1-yl]ethanol] | 0.0142 | 1.4 |
| CC(=O)NCc1[nH]c2c(Cl)c(Cl)cc(OCC#N)c2c1-c1cn[nH]c1 [Example 153, N-((6,7-Dichloro-4-(cyanomethoxy)-3-(1H-pyrazol-4-yl)-1H-indol-2-yl)methyl)acetamide] | 0.00511 | 0.807 |
| O=C(CO)NC1Cc2c(-c3cn[nH]c3)c3ccc(Cl)c(Cl)c3n2C1 (stereo not shown) [Example 154, N-(5,6-Dichloro-9-(1H-pyrazol-4-yl)-2,3-dihydro-1H-pyrrolo[1,2-a]indol-2-yl)-2-hydroxyacetamide] | 0.026 | 2.41 |
| CC(=O)NC1Cc2c(-c3cn[nH]c3)c3ccc(Cl)c(Cl)c3n2C1 (stereo not shown) [Example 155, N-(5,6-Dichloro-9-(1H-pyrazol-4-yl)-2,3-dihydro-1H-pyrrolo[1,2-a]indol-2-yl)acetamide] | 0.0273 | 7.68 |
| Clc1ccc2c(-c3cn[nH]c3)c(-c3nnco3)[nH]c2c1Cl [Example 156, 2-[6,7-Dichloro-3-(1H-pyrazol-4-yl)-1H-indol-2-yl]-1,3,4-oxadiazole] | 0.0405 | 0.464 |
| OCc1nnc(-c2[nH]c3c(Cl)c(Cl)ccc3c2-c2cn[nH]c2)o1 [Example 157, (5-(6,7-Dichloro-3-(1H-pyrazol-4-yl)-1H-indol-2-yl)-1,3,4-oxadiazol-2-yl)methanol] | 0.0281 | 0.331 |
| Cc1nnc(-c2[nH]c3c(Cl)c(Cl)ccc3c2-c2cn[nH]c2)s1 [Example 158, 2-(6,7-Dichloro-3-(1H-pyrazol-4-yl)-1H-indol-2-yl)-5-methyl-1,3,4-thiadiazole] | 0.0507 | 0.363 |
| Sc1nnc(-c2[nH]c3c(Cl)c(Cl)ccc3c2-c2cn[nH]c2)[nH]1 [Example 159, 5-[6,7-Dichloro-3-(1H-pyrazol-4-yl)-1H-indol-2-yl]-4H-1,2,4-triazole-3-thiol] | 0.019 | > 10 |
| Clc1ccc2c(-c3cn[nH]c3)c(-c3nnc(C4CC4)o3)[nH]c2c1Cl [Example 160, 2-Cyclopropyl-5-(6,7-dichloro-3-(1H-pyrazol-4-yl)-1H-indol-2-yl)-1,3,4-oxadiazole] | 0.0787 | 0.536 |
| COc1cc(Cl)cc2c1c(-c1cn[nH]c1)cn2-c1cn(CCO)nn1 [Example 161, 2-[4-[6-Chloro-4-methoxy-3-(1H-pyrazol-4-yl)indol-1-yl]triazol-1-yl]ethanol] | 0.0616 | 1.01 |
| O=C(CO)NCc1[nH]c2c(Cl)c(Cl)ccc2c1-c1cn[nH]c1 [Example 162, N-[[6,7-Dichloro-3-(1H-pyrazol-4-yl)-1H-indol-2-yl]methyl]-2-hydroxy-acetamide] | 0.0152 | 0.761 |
| CCC(=O)NCc1[nH]c2c(Cl)c(Cl)ccc2c1-c1cn[nH]c1 [Example 163, N-[[6,7-Dichloro-3-(1H-pyrazol-4-yl)-1H-indol-2-yl]methyl]propanamide] | 0.076 | 2.09 |

Source: US20230391786A1, “cGAS INHIBITORS” (Eli Lilly and Company, priority 2022, published 2023)
